Data as given in ChEMBL document CHEMBL3885881, “DrugMatrix”.

Species: Rattus norvegicus
Test: DrugMatrix - Regimen: Daily Repeat
Format: toxicity, organism-based, Sprague-Dawley
Design: regimen Daily Repeat, gender Male, age 6-8 weeks
Settings: in vivo, po, route oral GAVAGE, […]; for ABSOLUTE BASOPHIL / ABSOLUTE EOSINOPHIL / ABSOLUTE LYMPHOCYTE / ABSOLUTE MONOCYTE / ABSOLUTE SEGMENTED NEUTROPHIL / BASOPHIL / EOSINOPHIL / ERYTHROCYTE COUNT / HEMATOCRIT / HEMOGLOBIN / LEUKOCYTE COUNT / LYMPHOCYTE / MEAN CORPUSCULAR HEMOGLOBIN / MEAN CORPUSCULAR HEMOGLOBIN CONCENTRATION / MEAN CORPUSCULAR VOLUME / MONOCYTE / NEUTROPHIL / NUCLEATED RED BLOOD CELLS / PLATELET COUNT: tissue Blood; for ALANINE AMINOTRANSFERASE / ALBUMIN / ALKALINE PHOSPHATASE / ASPARTATE AMINOTRANSFERASE / BLOOD UREA NITROGEN / CARBON DIOXIDE / CHLORIDE / CHOLESTEROL / CREATINE PHOSPHOKINASE / CREATININE / GLUCOSE / LACTATE DEHYDROGENASE / LIPASE / PHOSPHORUS / SODIUM / TOTAL BILIRUBIN / TOTAL PROTEIN / URIC ACID: tissue Plasma
[1] = 0 mg/kg, 72 h, dose level Control, time 3 day
[2] = 0 mg/kg, 120 h, dose level Control, time 5 day
[3] = 450 mg/kg, 72 h, dose level Low, time 3 day

CC[C@H](C)C(=O)O[C@H]1C[C@@H](C)C=C2C=C[C@H](C)[C@H](CC[C@@H]3C[C@@H](O)CC(=O)O3)[C@H]21 [LOVASTATIN]
ABSOLUTE BASOPHIL [1]: 0 CELLS/uL
ABSOLUTE EOSINOPHIL [1]: 52.33 CELLS/uL
ABSOLUTE LYMPHOCYTE [1]: 9105.33 CELLS/uL
ABSOLUTE MONOCYTE [1]: 155.67 CELLS/uL
ABSOLUTE SEGMENTED NEUTROPHIL [1]: 1020 CELLS/uL
BASOPHIL [1]: 0%
EOSINOPHIL [1]: 0.33%
ERYTHROCYTE COUNT [1]: 5.03 x10E6/uL
HEMATOCRIT [1]: 31.63%
HEMOGLOBIN [1]: 12.37 G/DL
LEUKOCYTE COUNT [1]: 10.33 x10E3/uL
LYMPHOCYTE [1]: 87%
MEAN CORPUSCULAR HEMOGLOBIN [1]: 24.57 pg
MEAN CORPUSCULAR HEMOGLOBIN CONCENTRATION [1]: 39.07 G/DL
MEAN CORPUSCULAR VOLUME [1]: 62.93 fL
MONOCYTE [1]: 1.33%
NEUTROPHIL [1]: 11.33%
NUCLEATED RED BLOOD CELLS [1]: 0 /100WBC
PLATELET COUNT [1]: 896 x10E3/uL
ALANINE AMINOTRANSFERASE [1]: 75.33 u/L
ALBUMIN [1]: 3.77 G/DL
ALKALINE PHOSPHATASE [1]: 378.67 u/L
ASPARTATE AMINOTRANSFERASE [1]: 101.33 u/L
BLOOD UREA NITROGEN [1]: 11.33 mg/dL
CARBON DIOXIDE [1]: 25 mmol/L
CHLORIDE [1]: 99 MEQ/L
CHOLESTEROL [1]: 66 mg/dL
CREATINE PHOSPHOKINASE [1]: 277 u/L
CREATININE [1]: 0.33 mg/dL
GLUCOSE [1]: 198.33 mg/dL
LACTATE DEHYDROGENASE [1]: 140.33 u/L
LIPASE [1]: 11.33 u/L
PHOSPHORUS [1]: 11.83 mg/dL
SODIUM [1]: 141.03 MEQ/L
TOTAL BILIRUBIN [1]: 0.2 mg/dL
TOTAL PROTEIN [1]: 5.47 G/DL
URIC ACID [1]: 0.93 mg/dL
ABSOLUTE BASOPHIL [2]: 0 CELLS/uL
ABSOLUTE EOSINOPHIL [2]: 0 CELLS/uL
ABSOLUTE LYMPHOCYTE [2]: 8734 CELLS/uL
ABSOLUTE MONOCYTE [2]: 98.67 CELLS/uL
ABSOLUTE SEGMENTED NEUTROPHIL [2]: 1034 CELLS/uL
BASOPHIL [2]: 0%
EOSINOPHIL [2]: 0%
ERYTHROCYTE COUNT [2]: 5.19 x10E6/uL
HEMATOCRIT [2]: 33.2%
HEMOGLOBIN [2]: 12.93 G/DL
LEUKOCYTE COUNT [2]: 9.87 x10E3/uL
LYMPHOCYTE [2]: 87%
MEAN CORPUSCULAR HEMOGLOBIN [2]: 25 pg
MEAN CORPUSCULAR HEMOGLOBIN CONCENTRATION [2]: 39.03 G/DL
MEAN CORPUSCULAR VOLUME [2]: 63.93 fL
MONOCYTE [2]: 1%
NEUTROPHIL [2]: 12%
NUCLEATED RED BLOOD CELLS [2]: 0 /100WBC
PLATELET COUNT [2]: 1190 x10E3/uL
ALANINE AMINOTRANSFERASE [2]: 75.67 u/L
ALBUMIN [2]: 4 G/DL
ALKALINE PHOSPHATASE [2]: 384.33 u/L
ASPARTATE AMINOTRANSFERASE [2]: 89.67 u/L
BLOOD UREA NITROGEN [2]: 13 mg/dL
CARBON DIOXIDE [2]: 32.67 mmol/L
CHLORIDE [2]: 103 MEQ/L
CHOLESTEROL [2]: 79.67 mg/dL
CREATINE PHOSPHOKINASE [2]: 199.33 u/L
CREATININE [2]: 0.29 mg/dL
GLUCOSE [2]: 161.33 mg/dL
LACTATE DEHYDROGENASE [2]: 92.33 u/L
LIPASE [2]: 11.67 u/L
PHOSPHORUS [2]: 10.8 mg/dL
SODIUM [2]: 145.3 MEQ/L
TOTAL BILIRUBIN [2]: 0.17 mg/dL
TOTAL PROTEIN [2]: 5.7 G/DL
URIC ACID [2]: 0.63 mg/dL
ABSOLUTE BASOPHIL [3]: 0 CELLS/uL
ABSOLUTE EOSINOPHIL [3]: 0 CELLS/uL
ABSOLUTE LYMPHOCYTE [3]: 6372 CELLS/uL
ABSOLUTE MONOCYTE [3]: 86.67 CELLS/uL
ABSOLUTE SEGMENTED NEUTROPHIL [3]: 1174.67 CELLS/uL
BASOPHIL [3]: 0%
EOSINOPHIL [3]: 0%
ERYTHROCYTE COUNT [3]: 5.39 x10E6/uL
HEMATOCRIT [3]: 33.63%
HEMOGLOBIN [3]: 13.47 G/DL
LEUKOCYTE COUNT [3]: 7.63 x10E3/uL
LYMPHOCYTE [3]: 82.67%
MEAN CORPUSCULAR HEMOGLOBIN [3]: 25 pg
MEAN CORPUSCULAR HEMOGLOBIN CONCENTRATION [3]: 40.07 G/DL
MEAN CORPUSCULAR VOLUME [3]: 62.43 fL
MONOCYTE [3]: 1.33%
NEUTROPHIL [3]: 16%
NUCLEATED RED BLOOD CELLS [3]: 0 /100WBC
PLATELET COUNT [3]: 1202.67 x10E3/uL
ALANINE AMINOTRANSFERASE [3]: 138.33 u/L
ALBUMIN [3]: 4.13 G/DL
ALKALINE PHOSPHATASE [3]: 450.67 u/L
ASPARTATE AMINOTRANSFERASE [3]: 224.33 u/L
BLOOD UREA NITROGEN [3]: 11 mg/dL
CARBON DIOXIDE [3]: 27.67 mmol/L
CHLORIDE [3]: 97.33 MEQ/L
CHOLESTEROL [3]: 35 mg/dL
CREATINE PHOSPHOKINASE [3]: 505 u/L
CREATININE [3]: 0.16 mg/dL
GLUCOSE [3]: 146 mg/dL
LACTATE DEHYDROGENASE [3]: 223.33 u/L
LIPASE [3]: 10.67 u/L
PHOSPHORUS [3]: 10.17 mg/dL
SODIUM [3]: 140.53 MEQ/L
TOTAL BILIRUBIN [3]: 0.1 mg/dL
TOTAL PROTEIN [3]: 5.37 G/DL
URIC ACID [3]: 0.5 mg/dL
